# Laboratory results reported in ChEMBL document CHEMBL1138970, “Structure-activity relationships of [2',5'-bis-O-(tert-butyldimethylsilyl)-beta-D-ribofuranosyl]- 3'-spiro-5' '-(4' '-amino-1' ',2' '-oxathiole-2' ',2' '-dioxide)thymine derivatives as inhibitors of HIV-1 reverse transcriptase dimerization” (J Med Chem, 2006).
# Columns and labels:
# [1] = molecular target: T1, Human immunodeficiency virus type 1 reverse transcriptase (Human immunodeficiency virus 1, UniProt Q72547); assay: Inhibition of HIV1 reverse transcriptase RNA-dependent DNA polymerase activity
# [2] = molecular target: T1, Human immunodeficiency virus type 1 reverse transcriptase; assay: Inhibition of FLAG-p66/HIS-p51-mediated HIV1 reverse transcriptase dimerization
# [3] = Inhibition of MT4 cell viability; assay type: cell-based; settings: human, MT4 cells
# [4] = test system: Human immunodeficiency virus 1; assay: Antiviral activity against HIV1 in MT4 cells; assay type: functional, organism-based; settings: Human immunodeficiency virus 1, MT4
smiles,measurement,setting,value
Cc1cn(C2OC(CO[Si](C)(C)C(C)(C)C)CC2O[Si](C)(C)C(C)(C)C)c(=O)n(CC(=O)O)c1=O (stereo unspecified),IC50,[1],5.7 µM
same,IC50,[2],1.1 µM
same,CC50,[3],17 µM
same,EC50,[4],6390 nM
Cc1cn([C@@H]2O[C@H](CO[Si](C)(C)C(C)(C)C)[C@@]3(OS(=O)(=O)C=C3N)[C@H]2O[Si](C)(C)C(C)(C)C)c(=O)[nH]c1=O,IC50,[1],1 µM
same,IC50,[2],6.7 µM
same,CC50,[3],14 µM
same,EC50,[4],60 nM
CCc1cn([C@@H]2O[C@H](CO[Si](C)(C)C(C)(C)C)[C@@]3(OS(=O)(=O)C=C3N)[C@H]2O[Si](C)(C)C(C)(C)C)c(=O)[nH]c1=O,IC50,[1],3.4 µM
same,IC50,[2],8.5 µM
same,CC50,[3],20 µM
same,EC50,[4],60 nM
Cc1cn([C@@H]2O[C@H](CO[Si](C)(C)C(C)(C)C)[C@@]3(OS(=O)(=O)C=C3N)[C@H]2O[Si](C)(C)C(C)(C)C)c(=O)n(C)c1=O,IC50,[1],1.3 µM
same,IC50,[2],5.7 µM
same,CC50,[3],240 µM
same,EC50,[4],60 nM
Cc1cn([C@@H]2O[C@H](CO[Si](C)(C)C(C)(C)C)[C@@]3(OS(=O)(=O)C(I)=C3N)[C@H]2O[Si](C)(C)C(C)(C)C)c(=O)[nH]c1=O,IC50,[1],8 µM
same,IC50,[2],3.5 µM
same,CC50,[3],4 µM
same,EC50,[4],120 nM
Cc1cn([C@@H]2O[C@H](CO[Si](C)(C)C(C)(C)C)[C@@]3(OS(=O)(=O)C=C3N)[C@H]2O[Si](C)(C)C(C)(C)C)c(=O)n(CC2CO2)c1=O (stereo partly specified),IC50,[1],2.4 µM
same,IC50,[2],5 µM
same,CC50,[3],56 µM
same,EC50,[4],110 nM
Cc1cn([C@@H]2O[C@H](CO[Si](C)(C)C(C)(C)C)[C@@]3(OS(=O)(=O)C=C3N=C(N)N)[C@H]2O[Si](C)(C)C(C)(C)C)c(=O)[nH]c1=O,IC50,[1],3.8 µM
same,IC50,[2],14 µM
same,CC50,[3],87 µM
same,EC50,[4],960 nM
Cc1cn([C@@H]2O[C@H](CO[Si](C)(C)C(C)(C)C)[C@@]3(OS(=O)(=O)C=C3N)[C@H]2O[Si](C)(C)C(C)(C)C)c(=O)n(/C=C/CO)c1=O,IC50,[1],0.5 µM
same,IC50,[2],1.9 µM
same,CC50,[3],4 µM
same,EC50,[4],40 nM
CN(C)C(=O)c1cnnn1[C@@H]1O[C@H](CO[Si](C)(C)C(C)(C)C)[C@@]2(OS(=O)(=O)C=C2N)[C@H]1O[Si](C)(C)C(C)(C)C,IC50,[1],6.4 µM
same,IC50,[2],11.7 µM
same,CC50,[3],12 µM
same,EC50,[4],40 nM
Cc1cn([C@@H]2O[C@H](CO[Si](C)(C)C(C)(C)C)[C@@]3(OS(=O)(=O)C=C3N)[C@H]2O[Si](C)(C)C(C)(C)C)c(=O)n(CCc2ccccc2)c1=O,IC50,[1],0.8 µM
same,IC50,[2],3 µM
same,CC50,[3],2 µM
same,EC50,[4],840 nM
Cc1cn([C@@H]2O[C@H](CO[Si](C)(C)C(C)(C)C)[C@@]3(OS(=O)(=O)C=C3N)[C@H]2O[Si](C)(C)C(C)(C)C)c(=O)n(CC(=O)N[C@@H](CC(=O)O)C(=O)O)c1=O,IC50,[1],9.1 µM
same,IC50,[2],11.9 µM
same,CC50,[3],> 250 µM
same,EC50,[4],6290 nM
CNC(=O)CCCCn1c(=O)c(C)cn([C@@H]2O[C@H](CO[Si](C)(C)C(C)(C)C)[C@@]3(OS(=O)(=O)C=C3N)[C@H]2O[Si](C)(C)C(C)(C)C)c1=O,IC50,[1],3.2 µM
same,IC50,[2],6.8 µM
same,CC50,[3],> 250 µM
same,EC50,[4],50 nM
Cc1cn([C@@H]2O[C@H](CO[Si](C)(C)C(C)(C)C)[C@@H](O)[C@H]2O[Si](C)(C)C(C)(C)C)c(=O)n(CC(=O)O)c1=O,IC50,[1],6.6 µM
same,IC50,[2],6.6 µM
same,CC50,[3],19 µM
same,EC50,[4],5350 nM
Cc1cn([C@@H]2O[C@H](CO[Si](C)(C)C(C)(C)C)[C@@]3(OS(=O)(=O)C=C3N)[C@H]2O[Si](C)(C)C(C)(C)C)c(=O)n(CCCN(CC(=O)O)CC(=O)O)c1=O,IC50,[1],10.6 µM
same,IC50,[2],5.2 µM
same,CC50,[3],123 µM
same,EC50,[4],8320 nM
Cc1cn([C@@H]2O[C@H](CO[Si](C)(C)C(C)(C)C)[C@@]3(OS(=O)(=O)C=C3N)[C@H]2O[Si](C)(C)C(C)(C)C)c(=O)n(/C=C\CO)c1=O,IC50,[1],1.6 µM
same,IC50,[2],3.1 µM
same,CC50,[3],36 µM
same,EC50,[4],320 nM
Cc1cn([C@@H]2O[C@H](CO[Si](C)(C)C(C)(C)C)[C@@]3(OS(=O)(=O)C(/C=C/CO)=C3N)[C@H]2O[Si](C)(C)C(C)(C)C)c(=O)[nH]c1=O,IC50,[1],4.8 µM
same,IC50,[2],16 µM
same,CC50,[3],17 µM
same,EC50,[4],6630 nM
COC(=O)C(=O)NC1=CS(=O)(=O)O[C@@]12[C@@H](COCc1ccccc1)O[C@@H](n1cc(C)c(=O)n(C)c1=O)[C@@H]2O[Si](C)(C)C(C)(C)C,IC50,[1],5.4 µM
same,IC50,[2],7.2 µM
same,CC50,[3],4 µM
same,EC50,[4],4500 nM
Cc1cn([C@@H]2O[C@H](CO[Si](C)(C)C(C)(C)C)[C@@]3(OS(=O)(=O)C=C3N)[C@H]2O[Si](C)(C)C(C)(C)C)c(=O)n(CC(N)=O)c1=O,IC50,[1],1.7 µM
same,IC50,[2],7 µM
same,CC50,[3],18 µM
same,EC50,[4],70 nM
Cc1cn([C@@H]2O[C@H](CO[Si](C)(C)C(C)(C)C)[C@@]3(OS(=O)(=O)C=C3N)[C@H]2O[Si](C)(C)C(C)(C)C)c(=O)n(CC(=O)O)c1=O,IC50,[1],3.2 µM
same,IC50,[2],5.5 µM
same,CC50,[3],> 155 µM
same,EC50,[4],6220 nM
Cc1cn([C@@H]2O[C@H](CO[Si](C)(C)C(C)(C)C)[C@@]3(OS(=O)(=O)C=C3N)[C@H]2O[Si](C)(C)C(C)(C)C)c(=O)n(CC(=O)N[C@@H](C)C(=O)O)c1=O,IC50,[1],3.1 µM
same,IC50,[2],12 µM
same,CC50,[3],> 250 µM
same,EC50,[4],5700 nM
Cc1cn([C@@H]2O[C@H](CO[Si](C)(C)C(C)(C)C)[C@@]3(OS(=O)(=O)C=C3N)[C@H]2O[Si](C)(C)C(C)(C)C)c(=O)n(CCCN)c1=O,IC50,[1],4.4 µM
same,IC50,[2],7.2 µM
same,CC50,[3],14 µM
same,EC50,[4],520 nM
CCCn1c(=O)c(C)cn([C@@H]2O[C@H](CO[Si](C)(C)C(C)(C)C)[C@@]3(OS(=O)(=O)C=C3N)[C@H]2O[Si](C)(C)C(C)(C)C)c1=O,IC50,[1],0.5 µM
same,IC50,[2],4.3 µM
same,CC50,[3],75 µM
same,EC50,[4],260 nM
Cc1cn([C@@H]2O[C@H](CO[Si](C)(C)C(C)(C)C)[C@@]3(OS(=O)(=O)C=C3N)[C@H]2O[Si](C)(C)C(C)(C)C)c(=O)n(CCCO)c1=O,IC50,[1],0.7 µM
same,IC50,[2],1.6 µM
same,CC50,[3],4 µM
same,EC50,[4],30 nM
CC(C)(C)[Si](C)(C)OC[C@H]1O[C@@H](n2nncc2C(N)=O)[C@H](O[Si](C)(C)C(C)(C)C)[C@]12OS(=O)(=O)C=C2N,IC50,[1],8.4 µM
same,IC50,[2],10.1 µM
same,CC50,[3],15 µM
same,EC50,[4],520 nM
